Results published in ChEMBL document CHEMBL4715760, “Balancing potency, metabolic stability and permeability in pyrrolopyrimidine-based EGFR inhibitors” (Eur J Med Chem, 2016).
In brackets after ≈: the same amount, converted by molar mass.

Tests used:
[1] = biological target: T1, Epidermal growth factor receptor (Homo sapiens, UniProt P00533); test: Inhibition of human EGFR using poly[Glu:Tyr] (4:1) as substrate in presence of [gamma33P]ATP by radiometric HotSpot assay
[2] = biological target: T1, Epidermal growth factor receptor; conditions: dose 100.0 nM
Description: Inhibition of human EGFR at 100 nM using poly[Glu:Tyr] (4:1) as substrate in presence of [gamma33P]ATP by radiometric HotSpot assay relative to control

BaF3 = test: Antiproliferative activity against mouse Ba/F3 cells expressing EGFR-L858R mutant assessed as inhibition of cell growth incubated for 48 hrs by XTT assay; type: functional, cell-based; conditions: BaF3, 48 h
A-431 = test: Antiproliferative activity against human A431 cells; type: functional, cell-based
[3] = Metabolic stability in pooled human liver microsomes assessed as half life at 3 uM measured up to 45 mins in presence of NADPH by LC-MS/MS analysis; type: ADME, Microsome; conditions: for half-life at 3 µM: pooled liver microsomes
[4] = Protein binding in plasma (unknown origin) assessed as unbound fraction at 5 uM by LC-MS/MS based equilibrium dialysis analysis
[5] = biological target: T1, Epidermal growth factor receptor; test: Inhibition of EGFR (unknown origin) using Tyr 04 peptide as substrate incubated for 1 hr by Z'-LYTE assay
[6] = Metabolic stability in pooled human liver microsomes assessed as Clearance at 3 uM measured up to 45 mins in presence of NADPH by LC-MS/MS analysis; type: ADME, Microsome; conditions: for microsomal CLint at 3 µM: pooled liver microsomes, read-out: CLH
[7] = biological target: T1, Epidermal growth factor receptor; conditions: dose 100.0 nM, time 1.0 hrs
[8] = Apparent permeability from apical to basolateral side in human Caco2 cells at 10 uM measured for 120 mins by LC-MS/MS analysis; conditions: for Papp: caco-2, 2 h, 10 µM; for Papp A→B at 2 h, 10 µM: Caco-2
[9] = Efflux ratio of apparent permeability across basolateral to apical side over apical to basolateral side in human Caco2 cells at 10 uM measured for 120 mins by LC-MS/MS analysis
[10] = Apparent permeability from basolateral to apical side in human Caco2 cells at 10 uM measured for 120 mins by LC-MS/MS analysis; conditions: for Papp: caco-2, 2 h, 10 µM; for Papp B→A at 2 h, 10 µM: Caco-2
physchem = conditions: phosphate buffered saline, pH 7.4
[11] = biological target: Voltage-gated inwardly rectifying potassium channel KCNH2 (Homo sapiens, UniProt Q12809); test: Inhibition of human ERG expressed in CHO cells at -80 mV holding potential by IonWorks patch-clamp electrophysiology assay
Sequence of Voltage-gated inwardly rectifying potassium channel KCNH2 (Q12809 whole entry): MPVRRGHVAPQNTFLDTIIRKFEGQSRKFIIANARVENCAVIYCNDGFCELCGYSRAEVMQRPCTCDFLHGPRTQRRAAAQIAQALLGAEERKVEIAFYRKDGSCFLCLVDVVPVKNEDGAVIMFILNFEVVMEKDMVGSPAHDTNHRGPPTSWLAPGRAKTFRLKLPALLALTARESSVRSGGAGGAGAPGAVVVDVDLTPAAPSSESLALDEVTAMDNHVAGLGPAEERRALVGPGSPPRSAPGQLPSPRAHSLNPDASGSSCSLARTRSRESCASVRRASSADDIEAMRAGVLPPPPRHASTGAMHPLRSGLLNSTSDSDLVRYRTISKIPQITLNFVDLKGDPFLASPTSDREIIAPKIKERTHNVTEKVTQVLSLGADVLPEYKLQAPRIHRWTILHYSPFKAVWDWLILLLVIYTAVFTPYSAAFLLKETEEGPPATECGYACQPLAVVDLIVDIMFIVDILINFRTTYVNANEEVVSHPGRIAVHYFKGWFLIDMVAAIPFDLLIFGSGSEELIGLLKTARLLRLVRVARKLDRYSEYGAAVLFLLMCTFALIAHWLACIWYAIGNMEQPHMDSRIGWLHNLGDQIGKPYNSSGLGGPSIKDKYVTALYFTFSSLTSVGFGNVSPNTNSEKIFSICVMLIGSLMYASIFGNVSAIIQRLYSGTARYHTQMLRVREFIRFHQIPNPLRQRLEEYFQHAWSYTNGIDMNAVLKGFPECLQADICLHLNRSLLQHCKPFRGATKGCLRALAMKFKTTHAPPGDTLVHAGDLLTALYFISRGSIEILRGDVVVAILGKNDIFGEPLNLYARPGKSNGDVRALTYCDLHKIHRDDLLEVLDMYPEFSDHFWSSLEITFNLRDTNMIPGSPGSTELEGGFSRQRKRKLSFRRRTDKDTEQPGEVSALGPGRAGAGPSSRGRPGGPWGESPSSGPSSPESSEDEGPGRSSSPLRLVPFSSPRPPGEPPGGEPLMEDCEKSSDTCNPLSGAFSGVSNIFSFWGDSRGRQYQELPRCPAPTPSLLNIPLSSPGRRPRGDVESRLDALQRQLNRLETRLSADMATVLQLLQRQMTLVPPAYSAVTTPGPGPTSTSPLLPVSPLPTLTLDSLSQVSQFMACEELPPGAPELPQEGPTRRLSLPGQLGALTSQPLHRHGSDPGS

T1 sequence (P00533 whole entry): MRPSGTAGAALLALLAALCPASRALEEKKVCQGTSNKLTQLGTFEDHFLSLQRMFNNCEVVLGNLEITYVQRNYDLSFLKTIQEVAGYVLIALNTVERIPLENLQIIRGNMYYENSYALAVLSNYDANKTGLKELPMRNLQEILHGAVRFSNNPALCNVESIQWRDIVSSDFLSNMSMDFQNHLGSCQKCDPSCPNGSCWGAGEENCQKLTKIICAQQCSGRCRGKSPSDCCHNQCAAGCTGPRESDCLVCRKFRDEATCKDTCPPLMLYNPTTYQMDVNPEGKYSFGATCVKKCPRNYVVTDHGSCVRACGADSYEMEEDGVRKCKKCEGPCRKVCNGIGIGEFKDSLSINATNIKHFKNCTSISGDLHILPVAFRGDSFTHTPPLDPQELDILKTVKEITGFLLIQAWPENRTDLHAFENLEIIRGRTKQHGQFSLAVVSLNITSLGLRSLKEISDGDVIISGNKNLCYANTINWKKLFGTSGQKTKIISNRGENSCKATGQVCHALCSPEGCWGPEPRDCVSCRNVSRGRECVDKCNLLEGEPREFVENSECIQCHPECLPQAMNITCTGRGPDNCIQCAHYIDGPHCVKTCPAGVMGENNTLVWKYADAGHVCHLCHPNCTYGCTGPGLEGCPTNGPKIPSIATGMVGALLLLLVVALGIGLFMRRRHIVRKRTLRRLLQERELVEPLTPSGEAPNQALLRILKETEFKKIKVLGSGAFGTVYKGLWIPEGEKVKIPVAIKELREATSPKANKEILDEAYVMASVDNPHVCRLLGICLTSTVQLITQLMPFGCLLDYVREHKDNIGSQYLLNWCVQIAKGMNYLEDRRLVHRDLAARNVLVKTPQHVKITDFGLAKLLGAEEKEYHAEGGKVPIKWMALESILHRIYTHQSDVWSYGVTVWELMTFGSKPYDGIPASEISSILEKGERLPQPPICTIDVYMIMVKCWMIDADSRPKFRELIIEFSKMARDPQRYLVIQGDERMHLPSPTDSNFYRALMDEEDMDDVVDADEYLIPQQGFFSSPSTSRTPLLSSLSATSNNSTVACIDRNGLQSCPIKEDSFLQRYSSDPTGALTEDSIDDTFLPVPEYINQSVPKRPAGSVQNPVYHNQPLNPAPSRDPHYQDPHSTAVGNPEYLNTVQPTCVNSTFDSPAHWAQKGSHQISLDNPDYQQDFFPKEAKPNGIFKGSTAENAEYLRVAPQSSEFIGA

Row | SMILES | IC50 [1] [nM] | inhibition [2] [%] | also measured
1 | COc1cc(CNCCN(C)C)ccc1-c1cc2c(N[C@H](CO)c3ccccc3)ncnc2[nH]1 | 0.3 | 100 | –
2 | COc1cc(CNCCN(C)C)ccc1-c1cc2c(N[C@H](C)c3ccccc3)ncnc2[nH]1 | 0.1 | 99 | IC50 (BaF3): 90 nM; IC50 (A-431): 5000 nM
3 | OCc1ccc(-c2cc3c(N[C@H](CO)c4ccccc4)ncnc3[nH]2)cc1 | – | – | half-life at 3 µM [3]: 4.43 h; fraction unbound at 5 µM [4]: 0.11; IC50 [5]: 0.2 nM; microsomal CLint at 3 µM [6]: 5.21 µL/min/mg; inhibition [7]: 98%
4 | C[C@@H](Nc1ncnc2[nH]c(-c3ccc(C(N)=O)cc3)cc12)c1ccccc1 | 0.8 | 97 | –
5 | COc1cc(CNCCN2CCCCC2)ccc1-c1cc2c(N[C@H](CO)c3ccccc3)ncnc2[nH]1 | 0.1 | 99 | –
6 | COc1cc(NS(C)(=O)=O)ccc1-c1cc2c(N[C@H](CO)c3ccccc3)ncnc2[nH]1 | 0.3 | 100 | –
7 | C[C@@H](Nc1ncnc2[nH]c(-c3ccc(S(C)(=O)=O)cc3)cc12)c1ccccc1 | 0.4 | 97 | –
8 | C[C@@H](Nc1ncnc2[nH]c(-c3cccc(C(N)=O)c3)cc12)c1ccccc1 | 1.4 | 95 | –
9 | C[C@@H](Nc1ncnc2[nH]c(-c3ccc(S(N)(=O)=O)cc3)cc12)c1ccccc1 | 0.7 | 96 | –
10 | COc1cc(C(N)=O)ccc1-c1cc2c(N[C@H](C)c3ccccc3)ncnc2[nH]1 | 0.4 | 98 | –
11 | CC(C)Oc1ccccc1-c1cc2c(N[C@H](C)c3ccccc3)ncnc2[nH]1 | 0.6 | 98 | –
12 | COc1cccc(OC)c1-c1cc2c(N[C@H](C)c3ccccc3)ncnc2[nH]1 | 0.6 | 97 | –
13 | C[C@@H](Nc1ncnc2[nH]c(-c3ccccc3OC(F)(F)F)cc12)c1ccccc1 | 4.3 | 92 | –
14 | C[C@@H](Nc1ncnc2[nH]c(-c3ccc(NS(C)(=O)=O)cc3)cc12)c1ccccc1 | 0.3 | 98 | Papp [8]: 0.03 10^-6 cm/s; Ratio ([9]; caco-2, 2 h, 10 µM): 23.7; half-life at 3 µM [3]: 1.09 h; Papp [10]: 26.9 10^-6 cm/s; microsomal CLint at 3 µM [6]: 21.2 µL/min/mg; solubility kinetic at 2 h (physchem): 37.5 µM (≈ 15.3 µg/mL)
15 | CCOc1ccccc1-c1cc2c(N[C@H](C)c3ccccc3)ncnc2[nH]1 | 0.3 | 99 | –
16 | COc1cc(CN(C)CCN(C)C)ccc1-c1cc2c(N[C@H](CO)c3ccccc3)ncnc2[nH]1 | 0.1 | 99 | IC50 (BaF3): 77 nM; IC50 (A-431): > 10000 nM
17 | COC[C@@H](Nc1ncnc2[nH]c(-c3ccc(CO)cc3OC)cc12)c1ccccc1 | 0.5 | 98 | –
18 | COC[C@@H](Nc1ncnc2[nH]c(-c3ccccc3OC(F)F)cc12)c1ccccc1 | 1.3 | 96 | –
19 | CC(=O)Nc1ccc(-c2cc3c(N[C@H](C)c4ccccc4)ncnc3[nH]2)cc1 | 0.7 | 97 | –
20 | COc1cc(CNCCN2CCOCC2)ccc1-c1cc2c(N[C@H](CO)c3ccccc3)ncnc2[nH]1 | 0.1 | 97 | –
21 | C[C@@H](Nc1ncnc2[nH]c(-c3ccccc3OC(F)F)cc12)c1ccccc1 | 0.8 | 98 | half-life at 3 µM [3]: 0.412 h; microsomal CLint at 3 µM [6]: 56.2 µL/min/mg
22 | C[C@@H](Nc1ncnc2[nH]c(-c3ccncc3)cc12)c1ccccc1 | 0.6 | 97 | –
23 | COc1cc(NS(C)(=O)=O)ccc1-c1cc2c(N[C@H](C)c3ccccc3)ncnc2[nH]1 | 0.7 | 100 | –
24 | COc1cc(CO)ccc1-c1cc2c(N[C@H](CO)c3ccccc3)ncnc2[nH]1 | – | – | Papp [8]: 2.98 10^-6 cm/s; half-life at 3 µM [3]: 1.83 h; fraction unbound at 5 µM [4]: 0.08; IC50 [11]: > 25000 nM; Papp [10]: 50.84 10^-6 cm/s; microsomal CLint at 3 µM [6]: 12.6 µL/min/mg; solubility kinetic at 2 h (physchem): > 100 µM
25 | CS(=O)(=O)Nc1ccc(-c2cc3c(N[C@H](CO)c4ccccc4)ncnc3[nH]2)cc1 | – | – | Papp A→B at 2 h, 10 µM [8]: 0.02 ×10⁻⁶ cm/s; half-life at 3 µM [3]: 2.27 h; Papp B→A at 2 h, 10 µM [10]: 29.2 ×10⁻⁶ cm/s; microsomal CLint at 3 µM [6]: 10.2 µL/min/mg; solubility kinetic at 2 h (physchem): > 100 µM
26 | CN(C)CCNCc1cc(-c2cc3c(N[C@H](CO)c4ccccc4)ncnc3[nH]2)ccc1F | 1.2 | 96 | Papp A→B at 2 h, 10 µM [8]: 1.6 ×10⁻⁶ cm/s; efflux ratio at 2 h, 10 µM ([9]; Caco-2): 5.9; t1/2 ([3]; microsomes, 0.75 h, 3 µM): 1.72 h; Papp B→A at 2 h, 10 µM [10]: 9.6 ×10⁻⁶ cm/s; CLH ([6]; microsomes, 0.75 h, 3 µM): 2.79 µL/min/mg; solubility kinetic at 2 h (physchem): > 100 µM
27 | COc1cc(CNCCS(C)(=O)=O)ccc1-c1cc2c(N[C@H](CO)c3ccccc3)ncnc2[nH]1 | 0.4 | 100 | –
28 | COc1cc(CNCCN2CCNCC2)ccc1-c1cc2c(N[C@H](CO)c3ccccc3)ncnc2[nH]1 | 0.1 | 98 | IC50 (BaF3): 396 nM; IC50 (A-431): 6200 nM

More lines, main results first:

Row | IC50 [1] [nM] | inhibition [2] [%] | SMILES | also measured
29 | 2.2 | 92 | OC[C@@H](Nc1ncnc2[nH]c(-c3cccnc3)cc12)c1ccccc1 | –
30 | 0.8 | 98 | COc1cc(NC(C)=O)ccc1-c1cc2c(N[C@H](CO)c3ccccc3)ncnc2[nH]1 | –
31 | 0.8 | 96 | CS(=O)(=O)c1ccc(-c2cc3c(N[C@H](CO)c4ccccc4)ncnc3[nH]2)cc1 | –
32 | 0.6 | 97 | OCc1ccc(-c2cc3c(N[C@H](CO)c4ccccc4)ncnc3[nH]2)cc1F | IC50 (BaF3): 158 nM; IC50 (A-431): 5800 nM
33 | 2 | 94 | OC[C@@H](Nc1ncnc2[nH]c(-c3ccncc3)cc12)c1ccccc1 | –
34 | 0.3 | 97 | CN(C)CCNCc1ccc(-c2cc3c(N[C@H](CO)c4ccccc4)ncnc3[nH]2)cc1 | –
35 | 0.6 | 97 | COc1cnccc1-c1cc2c(N[C@H](CO)c3ccccc3)ncnc2[nH]1 | –
36 | 0.1 | 100 | CCOc1ccccc1-c1cc2c(N[C@H](CCO)c3ccccc3)ncnc2[nH]1 | IC50 (BaF3): 99 nM; IC50 (A-431): 4900 nM
37 | 0.5 | 99 | COc1cc(C(N)=O)ccc1-c1cc2c(N[C@H](CO)c3ccccc3)ncnc2[nH]1 | –
38 | 0.7 | 100 | NC(=O)Cc1cccc(-c2cc3c(N[C@H](CO)c4ccccc4)ncnc3[nH]2)c1 | –
39 | 900 | 20 | Cn1c(-c2ccccc2)cc2c(N[C@H](CO)c3ccccc3)ncnc21 | –
40 | 1.6 | 96 | OCc1cc(-c2cc3c(N[C@H](CO)c4ccccc4)ncnc3[nH]2)ccc1F | –
41 | 0.4 | – | [2H]C([2H])([2H])Oc1ccccc1-c1cc2c(N[C@H](CO)c3ccccc3)ncnc2[nH]1 | –
